The source of these data is the supplement of paper PMC10307832.

Holding throughout (test): relative viability (nuclei count vs DMSO), 5 days (fraction); higher = more cells survive
Compound in the assay “Quizartinib + Crizotinib”: CC(C)(C)c1cc(NC(=O)Nc2ccc(-c3cn4c(n3)sc3cc(OCCN5CCOCC5)ccc34)cc2)no1 [Quizartinib] + C[C@@H](Oc1cc(-c2cnn(C3CCNCC3)c2)cnc1N)c1c(Cl)ccc(F)c1Cl [Crizotinib] (partner 1 µM)
The method in brief:
(§1)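 A single step with final 0.05% Triton X-100, 1% formaldehyde and 1 ug/ml Hoechst fixed the cells and stained nuclei 5 days after treatment. Lung cancer cell lines in 1536-well plates had been treated by pin tool the day after seeding with one drug alone or a fixed anchor-drug dose plus five library-drug doses (not always all listed) in √10 steps, and nuclei were counted on 4× images. Relative viability is the ratio of nuclei in treated wells to nuclei in vehicle wells, taken as the median of duplicate plates.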

Compound in the assay “Quizartinib + Bortezomib”: CC(C)(C)c1cc(NC(=O)Nc2ccc(-c3cn4c(n3)sc3cc(OCCN5CCOCC5)ccc34)cc2)no1 [Quizartinib] + CC(C)C[C@H](NC(=O)[C@H](Cc1ccccc1)NC(=O)c1cnccn1)B(O)O [Bortezomib] (partner 0.002 µM)
The essentials: as §1

Compound in the assay “YM155 + Bortezomib”: COCC[n+]1c2c(n(Cc3cnccn3)c1C)C(=O)c1ccccc1C2=O [YM155] + CC(C)C[C@H](NC(=O)[C@H](Cc1ccccc1)NC(=O)c1cnccn1)B(O)O [Bortezomib] (partner 0.002 µM)
The method in brief:
as §1

Compound in the assay “YM155 + AZD7762”: COCC[n+]1c2c(n(Cc3cnccn3)c1C)C(=O)c1ccccc1C2=O [YM155] + NC(=O)Nc1cc(-c2cccc(F)c2)sc1C(=O)N[C@H]1CCCNC1 [AZD7762] (partner 0.2 µM)
The method in brief: as §1

Turning to A549, the relative viability was determined as 0.703 with Quizartinib + Crizotinib (first compound 0.001 µM); 0.691 with Quizartinib + Crizotinib (first compound 0.003162 µM); 0.879 with Quizartinib + Crizotinib (first compound 0.01 µM); 0.457 with Quizartinib + Crizotinib (first compound 0.03162 µM); 0.686 with Quizartinib + Crizotinib (first compound 0.1 µM).
With COR-L23, the relative viability with Quizartinib + Crizotinib (first compound 0.001 µM) was 0.573; in the assay with Quizartinib + Crizotinib (first compound 0.003162 µM), 0.538; with Quizartinib + Crizotinib (first compound 0.01 µM), 0.753; with Quizartinib + Crizotinib (first compound 0.03162 µM) it was 0.51; in the assay with Quizartinib + Crizotinib (first compound 0.1 µM), 0.67; in the assay with Quizartinib + Bortezomib (first compound 0.001 µM) it was 0.965. Further, the relative viability with Quizartinib + Bortezomib (first compound 0.003162 µM) was determined as 0.908; with Quizartinib + Bortezomib (first compound 0.01 µM), 1.14; in the assay with Quizartinib + Bortezomib (first compound 0.03162 µM) it was 0.902; with Quizartinib + Bortezomib (first compound 0.1 µM), 0.889; in the assay with YM155 + Bortezomib (first compound 0.002 µM) it was 0.923; with YM155 + Bortezomib (first compound 0.006325 µM) it was 0.929. The relative viability was 0.617 in the assay with YM155 + Bortezomib (first compound 0.02 µM) and 0.362 with YM155 + Bortezomib (first compound 0.06325 µM).
Take COR-L 105: the relative viability came out at 0.788 with Quizartinib + Crizotinib (first compound 0.001 µM); 0.734 in the assay with Quizartinib + Crizotinib (first compound 0.003162 µM); 0.669 with Quizartinib + Crizotinib (first compound 0.01 µM); 0.49 in the assay with Quizartinib + Crizotinib (first compound 0.03162 µM); 0.902 in the assay with Quizartinib + Crizotinib (first compound 0.1 µM); 0.64 in the assay with Quizartinib + Bortezomib (first compound 0.001 µM). The relative viability was 0.632 with Quizartinib + Bortezomib (first compound 0.003162 µM); 0.634 with Quizartinib + Bortezomib (first compound 0.01 µM); 0.632 in the assay with Quizartinib + Bortezomib (first compound 0.03162 µM); 0.617 with Quizartinib + Bortezomib (first compound 0.1 µM); 0.682 in the assay with YM155 + Bortezomib (first compound 0.002 µM); 0.81 with YM155 + Bortezomib (first compound 0.006325 µM). In addition, the relative viability with YM155 + Bortezomib (first compound 0.02 µM) was determined as 0.958; with YM155 + Bortezomib (first compound 0.06325 µM), 0.786.
Turning to Calu-6, the relative viability in the assay with Quizartinib + Crizotinib (first compound 0.001 µM) came to 0.719; with Quizartinib + Crizotinib (first compound 0.003162 µM), 0.714; with Quizartinib + Crizotinib (first compound 0.01 µM), 0.814; with Quizartinib + Crizotinib (first compound 0.03162 µM) it was 0.621; with Quizartinib + Crizotinib (first compound 0.1 µM), 0.752; with Quizartinib + Bortezomib (first compound 0.001 µM), 0.924. Also, the relative viability came to 0.991 with Quizartinib + Bortezomib (first compound 0.003162 µM); 1.02 with Quizartinib + Bortezomib (first compound 0.01 µM); 0.811 with Quizartinib + Bortezomib (first compound 0.03162 µM); 1.07 with Quizartinib + Bortezomib (first compound 0.1 µM); 0.966 with YM155 + Bortezomib (first compound 0.002 µM); 0.84 with YM155 + Bortezomib (first compound 0.006325 µM). Further, the relative viability with YM155 + Bortezomib (first compound 0.02 µM) was 0.298; with YM155 + Bortezomib (first compound 0.06325 µM), 0.188.
With EBC-1, the relative viability with Quizartinib + Crizotinib (first compound 0.001 µM) was found to be 0.197; in the assay with Quizartinib + Crizotinib (first compound 0.003162 µM) it was 0.173; in the assay with Quizartinib + Crizotinib (first compound 0.01 µM), 0.211; with Quizartinib + Crizotinib (first compound 0.03162 µM) it was 0.207; with Quizartinib + Crizotinib (first compound 0.1 µM), 0.211; in the assay with Quizartinib + Bortezomib (first compound 0.001 µM) it was 0.524. The relative viability with Quizartinib + Bortezomib (first compound 0.003162 µM) stood at 0.505; with Quizartinib + Bortezomib (first compound 0.01 µM), 0.561; with Quizartinib + Bortezomib (first compound 0.03162 µM) it was 0.495; in the assay with Quizartinib + Bortezomib (first compound 0.1 µM), 0.466; with YM155 + Bortezomib (first compound 0.002 µM) it was 0.613; with YM155 + Bortezomib (first compound 0.006325 µM), 0.458. In addition, the values for the relative viability in the assay with YM155 + Bortezomib (first compound 0.02 µM) and with YM155 + Bortezomib (first compound 0.06325 µM) were 0.566 and 0.593, respectively.
In the case of IA-LM, the relative viability with Quizartinib + Crizotinib (first compound 0.001 µM) was found to be 0.858; in the assay with Quizartinib + Crizotinib (first compound 0.003162 µM), 0.912; in the assay with Quizartinib + Crizotinib (first compound 0.01 µM), 0.726; with Quizartinib + Crizotinib (first compound 0.1 µM) it was 0.623; in the assay with Quizartinib + Bortezomib (first compound 0.001 µM), 0.774; with Quizartinib + Bortezomib (first compound 0.003162 µM), 0.738. For the same cell line, the relative viability with Quizartinib + Bortezomib (first compound 0.01 µM) came out at 0.885; with Quizartinib + Bortezomib (first compound 0.03162 µM), 0.812; with Quizartinib + Bortezomib (first compound 0.1 µM), 0.736; with YM155 + Bortezomib (first compound 0.002 µM), 0.806; with YM155 + Bortezomib (first compound 0.006325 µM), 0.78; with YM155 + Bortezomib (first compound 0.02 µM) it was 0.874. The relative viability with YM155 + Bortezomib (first compound 0.06325 µM) was 0.737.
For LK-2, the relative viability in the assay with Quizartinib + Crizotinib (first compound 0.001 µM) was 0.186; in the assay with Quizartinib + Crizotinib (first compound 0.003162 µM), 0.224; with Quizartinib + Crizotinib (first compound 0.01 µM), 0.229; in the assay with Quizartinib + Crizotinib (first compound 0.03162 µM) it was 0.238; with Quizartinib + Crizotinib (first compound 0.1 µM), 0.24; in the assay with YM155 + AZD7762 (first compound 0.002 µM), 0.445. In addition, the relative viability with YM155 + AZD7762 (first compound 0.006325 µM) is 0.305; with YM155 + AZD7762 (first compound 0.02 µM), 0.494; in the assay with YM155 + AZD7762 (first compound 0.06325 µM), 0.438.
NCI-H358: the relative viability in the assay with Quizartinib + Crizotinib (first compound 0.001 µM) turned out to be 0.584; in the assay with Quizartinib + Crizotinib (first compound 0.003162 µM) it was 0.558; in the assay with Quizartinib + Crizotinib (first compound 0.01 µM), 0.66; with Quizartinib + Crizotinib (first compound 0.1 µM), 0.38; with YM155 + AZD7762 (first compound 0.006325 µM), 0.523; with YM155 + AZD7762 (first compound 0.02 µM), 0.437. The relative viability with YM155 + AZD7762 (first compound 0.06325 µM) came to 0.281.
NCI-H520: the relative viability stood at 0.726 in the assay with Quizartinib + Crizotinib (first compound 0.001 µM); 0.686 in the assay with Quizartinib + Crizotinib (first compound 0.003162 µM); 0.739 with Quizartinib + Crizotinib (first compound 0.01 µM); 0.726 with Quizartinib + Crizotinib (first compound 0.03162 µM); 0.666 with Quizartinib + Crizotinib (first compound 0.1 µM); 0.448 with Quizartinib + Bortezomib (first compound 0.001 µM). Further, the relative viability in the assay with Quizartinib + Bortezomib (first compound 0.003162 µM) was determined as 0.549; with Quizartinib + Bortezomib (first compound 0.01 µM) it was 0.736; in the assay with Quizartinib + Bortezomib (first compound 0.03162 µM), 0.532; in the assay with Quizartinib + Bortezomib (first compound 0.1 µM), 0.462; with YM155 + Bortezomib (first compound 0.002 µM), 0.586; with YM155 + Bortezomib (first compound 0.006325 µM), 0.62. Besides, the relative viability was 0.653 with YM155 + Bortezomib (first compound 0.02 µM) and 1 in the assay with YM155 + Bortezomib (first compound 0.06325 µM).
In the case of NCI-H522, the relative viability with YM155 + AZD7762 (first compound 0.002 µM) amounted to 0.699; with YM155 + AZD7762 (first compound 0.006325 µM), 0.854; with YM155 + AZD7762 (first compound 0.02 µM), 0.961; in the assay with YM155 + AZD7762 (first compound 0.06325 µM), 0.991.
On to NCI-H661, for which the relative viability turned out to be 0.905 with Quizartinib + Crizotinib (first compound 0.001 µM); 0.998 in the assay with Quizartinib + Crizotinib (first compound 0.003162 µM); 1.07 with Quizartinib + Crizotinib (first compound 0.01 µM); 0.856 with Quizartinib + Crizotinib (first compound 0.1 µM); 0.747 in the assay with Quizartinib + Bortezomib (first compound 0.001 µM); 0.903 in the assay with Quizartinib + Bortezomib (first compound 0.003162 µM). The relative viability with Quizartinib + Bortezomib (first compound 0.01 µM) worked out at 0.684; with Quizartinib + Bortezomib (first compound 0.03162 µM) it was 0.791; with Quizartinib + Bortezomib (first compound 0.1 µM) it was 0.878; with YM155 + Bortezomib (first compound 0.002 µM), 0.894; with YM155 + Bortezomib (first compound 0.006325 µM), 0.983; with YM155 + Bortezomib (first compound 0.02 µM) it was 0.835. Moreover, in the assay with YM155 + Bortezomib (first compound 0.06325 µM), the relative viability was determined as 0.848.
Take NCI-H1299: the relative viability with Quizartinib + Crizotinib (first compound 0.001 µM) amounted to 0.92; with Quizartinib + Crizotinib (first compound 0.003162 µM) it was 0.949; in the assay with Quizartinib + Crizotinib (first compound 0.01 µM), 1.01; with Quizartinib + Crizotinib (first compound 0.03162 µM), 0.928; with Quizartinib + Crizotinib (first compound 0.1 µM), 0.956; in the assay with Quizartinib + Bortezomib (first compound 0.003162 µM), 0.985. For the same cell line, the relative viability with Quizartinib + Bortezomib (first compound 0.01 µM) came out at 1.01; with Quizartinib + Bortezomib (first compound 0.03162 µM) it was 1.02; with Quizartinib + Bortezomib (first compound 0.1 µM), 1.04; with YM155 + Bortezomib (first compound 0.002 µM) it was 1.02; with YM155 + Bortezomib (first compound 0.006325 µM), 1.01; with YM155 + Bortezomib (first compound 0.02 µM), 1. Besides, in the assay with YM155 + Bortezomib (first compound 0.06325 µM), the relative viability was found to be 1.
With NCI-H1395, the relative viability came out at 0.351 with YM155 + AZD7762 (first compound 0.002 µM), 0.41 with YM155 + AZD7762 (first compound 0.006325 µM), 0.4 with YM155 + AZD7762 (first compound 0.02 µM) and 0.434 with YM155 + AZD7762 (first compound 0.06325 µM).
